Measured values as given in US11471534B2, “Chitosan-pluronic complex and nano-carrier comprising same” (KOREA INSTITUTE OF CERAMIC ENGINEERING AND TECHNOLOGY, priority 2017, dated 2022).

Assay: Distribution of model drug (Nile red) in skin, fluorescence microscope on cryo-sections
Format: in vitro ADME, human
Conditions: after the skin penetration experiment, 20 μm cryo-sections
Description: After completing a skin penetration experiment of the drugs, skins were fixed in a […] neutral formalin solution for 12 hours or more to confirm how the drugs were distributed in the skins. After mixing the fixed skins with an OCT compound, allowing OCT compound-mixed skins to be frozen in liquid nitrogen of −20° C. or less, and cutting the frozen skins to a thickness of 20 μm through a cryo-section device (−25° C.), sampling was made by attaching the cut skins to glass. After washing samples with deionized water and observing distribution statuses of a model drug (Nile red) in the skins with a fluorescence microscope, observation results are illustrated in FIG. 10.

In the case of `CCN(CC)c1ccc2nc3c4ccccc4c(=O)cc-3oc2c1` [Nile red], the “distribution of model drug (Nile red) in the skin” value is reported as “collected in stratum corneum”.
